From patent publication US5187192A, “Cyclobutyl derivatives having lipoxygenase inhibitory activity” (Abbott Laboratories, priority 1992, dated 1993)

How the values were obtained:
[1] = target: T1, 5-Lipoxygenase (Homo sapiens, UniProt P09917); assay: Inhibition of calcium ionophore-induced LTB4 biosynthesis in human whole blood (5-lipoxygenase inhibition); format: cell-based; conditions: human heparinized whole blood, A23187 8.3 μM; for IC50: 15 min preincubation at 37° C., 30 min, read-out: IC50, inhibition of 5-lipoxygenase from stimulated LTB4 formation in human whole blood; for percent inhibition of 5-lipoxygenase from stimulated LTB4 formation in human whole blood: @ 0.1 (column unit 10^-6 M)
T1 construct: Human heparinized whole blood was preincubated with test compounds or vehicle for 15 min; endogenous in cells; host or cells: heparinized human whole blood (blood cells stimulated with calcium ionophore A23187)
T1 sequence (P09917 1-674): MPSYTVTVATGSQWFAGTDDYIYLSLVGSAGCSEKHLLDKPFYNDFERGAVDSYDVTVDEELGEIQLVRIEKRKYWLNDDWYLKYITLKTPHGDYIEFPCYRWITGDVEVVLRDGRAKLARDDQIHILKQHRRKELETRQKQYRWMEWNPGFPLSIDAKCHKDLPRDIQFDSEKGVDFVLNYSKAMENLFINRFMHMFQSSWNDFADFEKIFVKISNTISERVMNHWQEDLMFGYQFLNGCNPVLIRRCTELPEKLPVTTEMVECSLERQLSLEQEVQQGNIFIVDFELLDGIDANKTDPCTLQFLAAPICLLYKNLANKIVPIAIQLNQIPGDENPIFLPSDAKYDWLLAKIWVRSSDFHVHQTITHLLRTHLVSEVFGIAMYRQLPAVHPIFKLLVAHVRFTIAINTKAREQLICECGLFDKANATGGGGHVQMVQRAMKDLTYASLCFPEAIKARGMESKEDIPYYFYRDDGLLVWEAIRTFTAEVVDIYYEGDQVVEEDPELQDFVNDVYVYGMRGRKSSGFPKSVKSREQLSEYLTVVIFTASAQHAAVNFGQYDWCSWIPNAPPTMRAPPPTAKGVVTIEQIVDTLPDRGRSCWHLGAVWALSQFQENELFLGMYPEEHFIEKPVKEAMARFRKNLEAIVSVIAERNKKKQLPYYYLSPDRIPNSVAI
Procedure: Inhibition of leukotriene biosynthesis was evaluated in an assay, involving calcium ionophore-induced LTB4 biosynthesis expressed human whole blood. […] The methanol extract was analyzed for LTB4 using a commercially available radioimmunoassay.

[2] = system: leukotriene biosynthesis; assay: Inhibition of leukotriene biosynthesis in vivo after oral administration, rat peritoneal anaphylaxis model; conditions: at 30 μM/kg, gavage one hour prior to antigen challenge, peritoneal fluid 15 minutes after challenge
Procedure: Inhibition of the biosynthesis of leukotrienes in vivo after oral administration of compound was determined using a rat peritoneal anaphylaxis model in a similar manner as that described by Yound and coworkers (Young, P. R.; Dyer, R. D.; Carter, G. W. Fed. Proc., Fed. Am. Soc. Exp. Biol. 1985, 44, 1185). In this model rats were injected intraperitoneally (ip) with rabbit antibody to bovine serum albumin (BSA) and three hours later injected ip with BSA to induce an antigen-antibody response. Rats were sacrificed 15 minutes after this challenge and the peritoneal fluids were collected and analyzed for leukotriene levels. Test compounds were administered by gavage one hour prior to the antigen challenge. Percent inhibition values were determined by comparing the treatment group to the mean of the control group.

Structure (SMILES) | IC50 [1] [nM] | percent inhibition of 5-lipoxygenase from stimulated LTB4 formation in human whole blood [1] [%] | Percent Inhibition of Leukotriene Biosynthesis [2] [%]
NC(=O)N(O)C1CC(c2cccc(Oc3ccc(F)cc3)c2)C1 (single isomer, unassigned) [Example 1a, N-[3-(3-(4-fluorophenoxy)phenyl)-cyclobutyl]-N-hydroxyurea] | 130 | – | 76
NC(=O)N(O)C1CC(c2cccc(Oc3ccc(F)cc3)c2)C1 (single isomer, unassigned) [Example 1b, N-[3-(3-(4-fluorophenoxy)phenyl)-cyclobutyl]-N-hydroxyurea] | 160 | – | 59
NC(=O)N(O)C1CC(c2ccccc2)C1 (single isomer, unassigned) [Example 2a, N-[3-phenylcyclobutyl]-N-hydroxyurea] | 330 | – | 51
NC(=O)N(O)C1CC(c2ccccc2)C1 (single isomer, unassigned) [Example 2b, N-[3-phenylcyclobutyl]-N-hydroxyurea] | 300 | – | 45

Further lines, with some results ahead:

IC50 [1] [nM] | percent inhibition of 5-lipoxygenase from stimulated LTB4 formation in human whole blood [1] [%] | Structure (SMILES) | Percent Inhibition of Leukotriene Biosynthesis [2] [%]
– | 53 | NC(=O)N(O)C1CC(c2ccc(Oc3ccc(F)cc3)s2)C1 (single isomer, unassigned) [Example 3a, N-[3-(5-(4-fluorophenoxy)thien-2-yl)-cyclobutyl]-N-hydroxyurea] | –
– | 52 | NC(=O)N(O)C1CC(c2ccc(Oc3ccc(F)cc3)s2)C1 (single isomer, unassigned) [Example 3b, N-[3-(5-(4-fluorophenoxy)thien-2-yl)-cyclobutyl]-N-hydroxyurea] | 82
230 | – | COc1ccc2cc(C3CC(N(O)C(N)=O)C3)ccc2c1 (single isomer, unassigned) [Example 4a, N-[3-(6-methoxy-2-naphthyl)-cyclobutyl]-N-hydroxyurea] | –
520 | – | COc1ccc2cc(C3CC(N(O)C(N)=O)C3)ccc2c1 (single isomer, unassigned) [Example 4b, N-[3-(6-methoxy-2-naphthyl)-cyclobutyl]-N-hydroxyurea] | –
90 | – | NC(=O)N(O)C1CC(c2ccc(-c3ccccc3)cc2)C1 (single isomer, unassigned) [Example 5a, N-[3-(4-biphenyl)-cyclobutyl]-N-hydroxyurea] | –
960 | – | NC(=O)N(O)C1CC(c2ccc(-c3ccccc3)cc2)C1 (single isomer, unassigned) [Example 5b, N-[3-(4-biphenyl)-cyclobutyl]-N-hydroxyurea] | –
510 | – | COc1cccc(C2CC(N(O)C(C)=O)C2)c1 (single isomer, unassigned) [Example 6a, N-[3-(3-methoxyphenyl)cyclobutyl]-N-hydroxyacetamide] | –
1210 | – | COc1cccc(C2CC(N(O)C(C)=O)C2)c1 (single isomer, unassigned) [Example 6b, N-[3-(3-methoxyphenyl)cyclobutyl]-N-hydroxyacetamide] | –
